Measurements as given in patent publication US10087178B2, “Substituted spiropyrido[1,2-a]pyrazine derivative and medicinal use thereof as HIV integrase inhibitor” (priority 2012, dated 2018).
Counter-ions that a name gives are not always drawn.

tested on: HIV-1 NL4-3 strain; assay: Evaluation of antiviral activity: acute infection system of MT-4 cell with HIV-1 NL4-3 strain; assay type: cell-based; settings: Human immunodeficiency virus 1, NL43, MT4, 120 h, MT-4 cells infected with HIV-1 NL4-3 strain (MOI 0.05), cultured 5 days, Cell Titer-Glo; read-out: antiviral activity (EC50)

Compound | EC50
CO[C@H]1C[C@]2(CN(C)C(=O)c3c(O)c(=O)c(C(=O)NCc4cccc(Cl)c4F)cn32)C1 [Example 23, N-(3-chloro-2-fluorobenzyl)-9′-hydroxy-cis-3-methoxy-2′-methyl-1′,8′-dioxo-1′,2′,3′,8′-tetrahydrospiro[cyclobutane-1,4′-pyrido[, 2-a]pyrazine]-7′-carboxamide] | 1.6 nM

same assay, conditions: Human immunodeficiency virus 1, NL43, MT4, 120 h, antiviral activity; MT-4 cells infected with HIV-1 NL4-3 (MOI 0.05), 5 days culture, Cell Titer-Glo luminescence

Compound | EC50
CO[C@H]1C[C@@]2(CN(C)C(=O)c3c(O)c(=O)c(C(=O)NCc4cccc(Cl)c4F)cn32)C1 [Example 2, N-(3-chloro-2-fluorobenzyl)-9′-hydroxy-trans-3-methoxy-2′-methyl-1′,8′-dioxo-1′,2′,3′,8′-tetrahydrospiro[cyclobutane-1,4′-pyrido[1,2-a]pyrazine]-7′-carboxamide hydrochloride] | 4.2 nM
COC[C@H]1C[C@]2(CN(C)C(=O)c3c(O)c(=O)c(C(=O)NCc4cccc(Cl)c4F)cn32)C1 [Example 3, N-(3-chloro-2-fluorobenzyl)-9′-hydroxy-cis-3-(methoxymethyl)-2′-methyl-1′,8′-dioxo-1′,2′,3′,8′-tetrahydrospiro[cyclobutane-1,4′-pyrido[1,2-a]pyrazine]-7′-carboxamide hydrochloride] | 3.2 nM
CC(C)N1C[C@@]2(C[C@@H]2CO)n2cc(C(=O)NCc3ccc(F)cc3F)c(=O)c(O)c2C1=O [Example 9, (1S,2S)—N-(2,4-difluorobenzyl)-9′-hydroxy-2-(hydroxymethyl)-2′-isopropyl-1′,8′-dioxo-1′,2′,3′,8′-tetrahydrospiro[cyclopropane-1,4′-pyrido[1,2-a]pyrazine]-7′-carboxamide hydrochloride] | 5.6 nM
COC[C@H]1C[C@@]12CN(C(C)C)C(=O)c1c(O)c(=O)c(C(=O)NCc3ccc(F)cc3F)cn12 [Example 10, (1S,2S)—N-(2,4-difluorobenzyl)-9′-hydroxy-2′-isopropyl-2-(methoxymethyl)-1′,8′-dioxo-1′,2′,3′,8′-tetrahydrospiro[cyclopropane-1,4′-pyrido[1,2-a]pyrazine]-7′-carboxamide hydrochloride] | 3.6 nM
CC(C)N1C[C@]2(C[C@H]2CO)n2cc(C(=O)NCc3ccc(F)cc3F)c(=O)c(O)c2C1=O [Example 11, (1R,2R)—N-(2,4-difluorobenzyl)-9′-hydroxy-2-(hydroxymethyl)-2′-isopropyl-1′,8′-dioxo-1′,2′,3′,8′-tetrahydrospiro[cyclopropane-1,4′-pyrido[1,2-a]pyrazine]-7′-carboxamide hydrochloride] | 5.8 nM
COC[C@@H]1C[C@]12CN(C(C)C)C(=O)c1c(O)c(=O)c(C(=O)NCc3ccc(F)cc3F)cn12 [Example 12, (1R,2R)—N-(2,4-difluorobenzyl)-9′-hydroxy-2′-isopropyl-2-(methoxymethyl)-1′,8′-dioxo-1′,2′,3′,8′-tetrahydrospiro[cyclopropane-1,4′-pyrido[1,2-a]pyrazine]-7′-carboxamide hydrochloride] | 5 nM
CC(C)N1C[C@]2(C[C@@H]2CO)n2cc(C(=O)NCc3ccc(F)cc3F)c(=O)c(O)c2C1=O [Example 13, (1R,2S)—N-(2,4-difluorobenzyl)-9′-hydroxy-2-(hydroxymethyl)-2′-isopropyl-1′,8′-dioxo-1′,2′,3′,8′-tetrahydrospiro[cyclopropane-1,4′-pyrido[1,2-a]pyrazine]-7′-carboxamide hydrochloride] | 5.4 nM
CC(C)N1C[C@@]2(C[C@H]2CO)n2cc(C(=O)NCc3ccc(F)cc3F)c(=O)c(O)c2C1=O [Example 15, (1S,2R)—N-(2,4-difluorobenzyl)-9′-hydroxy-2-(hydroxymethyl)-2′-isopropyl-1′,8′-dioxo-1′,2′,3′,8′-tetrahydrospiro[cyclopropane-1,4′-pyrido[1,2-a]pyrazine]-7′-carboxamide hydrochloride] | 7.2 nM
CC(=O)N(C)C1CC2(C1)CN(C(C)C)C(=O)c1c(O)c(=O)c(C(=O)NCc3ccc(F)cc3F)cn12 (centres unmarked) [Example 20, N-(2,4-difluorobenzyl)-9′-hydroxy-2′-isopropyl-3-(N-methylacetamido)-1′,8′-dioxo-1′,2′,3′,8′-tetrahydrospiro[cyclobutane-1,4′-pyrido[1,2-a]pyrazine]-7′-carboxamide hydrochloride] | 20 nM
CC(C)N1C[C@]2(C[C@H]2CS(C)(=O)=O)n2cc(C(=O)NCc3cccc(Cl)c3F)c(=O)c(O)c2C1=O [Example 21, (1R,2R)—N-(3-chloro-2-fluorobenzyl)-9′-hydroxy-2′-isopropyl-2-(methylsulfonylmethyl)-1′,8′-dioxo-1′,2′,3′,8′-tetrahydrospiro[cyclopropane-1,4′-pyrido[1,2-a]pyrazine]-7′-carboxamide hydrochloride] | 48 nM

same assay, conditions: Human immunodeficiency virus 1, NL43, MT4, 120 h, antiviral activity; MT-4 cells infected with HIV-1 NL4-3 (MOI 0.05), 5 days culture, Cell Titer-Glo luminescence; read-out: EC50

Compound | EC50
CC(C)N1CC2(CC(O)C2)n2cc(C(=O)NCc3ccc(F)cc3F)c(=O)c(O)c2C1=O (single isomer, unassigned) [Example S3, N-(2,4-difluorobenzyl)- trans-3,9′-dihydroxy-2′-isopropyl-1′,8′-dioxo-1′,2′,3′,8′-tetrahydrospiro[cyclobutane-1,4′-pyrido[1,2-a]pyrazine]-7′-carboxamide hydrobromide] | 11 nM
CC(C)N1CC2(CC(O)C2)n2cc(C(=O)NCc3ccc(F)cc3F)c(=O)c(O)c2C1=O (single isomer, unassigned) [Example S4, N-(2,4-difluorobenzyl)-cis-3,9′-dihydroxy-2′-isopropyl-1′,8′-dioxo-1′,2′,3′,8′-tetrahydrospiro[cyclobutane-1,4′-pyrido[1,2-a]pyrazine]-7′-carboxamide] | 4.9 nM
COC[C@H]1C[C@]12CN(C(C)C)C(=O)c1c(O)c(=O)c(C(=O)NCc3ccc(F)cc3F)cn12 [Example 14, (1R,2S)—N-(2,4-difluorobenzyl)-9′-hydroxy-2′-isopropyl-2-(methoxymethyl)-1′,8′-dioxo-1′,2′,3′,8′-tetrahydrospiro[cyclopropane-1,4′-pyrido[1,2-a]pyrazine]-7′-carboxamide] | 9.1 nM
COC[C@@H]1C[C@@]12CN(C(C)C)C(=O)c1c(O)c(=O)c(C(=O)NCc3ccc(F)cc3F)cn12 [Example 16, (1S,2R)—N-(2,4-difluorobenzyl)-9′-hydroxy-2′-isopropyl-2-(methoxymethyl)-1′,8′-dioxo-1′,2′,3′,8′-tetrahydrospiro[cyclopropane-1,4′-pyrido[1,2-a]pyrazine]-7′-carboxamide] | 6.1 nM
CCN1C(=O)c2c(O)c(=O)c(C(=O)NCc3cccc(Cl)c3F)cn2C[C@@]12C[C@@H]2COC [Example 17, (1S,2S)—N-(3-chloro-2-fluorobenzyl)-2′-ethyl-9′-hydroxy-2-(methoxymethyl)-1′,8′-dioxo-1′,2′,4′,8′-tetrahydrospiro[cyclopropane-1,3′-pyrido[1,2-a]pyrazine]-7′-carboxamide] | 3.4 nM
CCN1C(=O)c2c(O)c(=O)c(C(=O)NCc3cccc(Cl)c3F)cn2C[C@]12C[C@H]2COC [Example 18, (1R,2R)—N-(3-chloro-2-fluorobenzyl)-2′-ethyl-9′-hydroxy-2-(methoxymethyl)-1′,8′-dioxo-1′,2′,4′,8′-tetrahydrospiro[cyclopropane-1,3′-pyrido[1,2-a]pyrazine]-7′-carboxamide] | 2.6 nM
CCN1C[C@@]2(C[C@@H]2C(=O)N(C)C)n2cc(C(=O)NCc3ccc(F)cc3F)c(=O)c(O)c2C1=O [Example 19, (1S,2S)—N^7′-(2,4-difluorobenzyl)-2′-ethyl-9′-hydroxy-N^2,N^2-dimethyl-1′,8′-dioxo-1′,2′,3′,8′-tetrahydrospiro[cyclopropane-1,4′-pyrido[1,2-a]pyrazine]-2,7′-dicarboxamide hydrochloride] | 4.2 nM

same assay, conditions: Human immunodeficiency virus 1, NL43, MT4, 120 h; read-out: antiviral activity (EC50)

Compound | EC50
CN1C[C@]2(C[C@H](C(=O)O)C2)n2cc(C(=O)NCc3cccc(Cl)c3F)c(=O)c(O)c2C1=O [Example 22, 7′-(3-chloro-2-fluorobenzylcarbamoyl)-9′-hydroxy-2′-methyl-1′,8′-dioxo-1′,2′,3′,8′-tetrahydrospiro[cyclobutane-1,4′-pyrido[1,2-a]pyrazine]-cis-3-carboxylic acid hydrochloride] | 400 nM
CO[C@H]1C[C@]2(CN(C)C(=O)c3c(O)c(=O)c(C(=O)NCc4cccc(Cl)c4F)cn32)C1 [Example 25, Monopotassium 7′-(3-chloro-2-fluorobenzylcarbamoyl)-cis-3-methoxy-2′-methyl-1′,8′-dioxo-1′,2′,3′,8′-tetrahydrospiro[cyclobutane-1,4′-pyrido[1,2-a]pyrazin]-9′-olate] | 2.1 nM

same assay, conditions: MT-4 cells infected with HIV-1 NL4-3 strain (MOI 0.05), cultured 5 days, Cell Titer-Glo; read-out: antiviral activity (EC50)

Compound | EC50
CO[C@H]1C[C@]2(CN(C)C(=O)c3c(O)c(=O)c(C(=O)NCc4cccc(Cl)c4F)cn32)C1 [Example 24, Monosodium 7′-(3-chloro-2-fluorobenzylcarbamoyl)-cis-3-methoxy-2′-methyl-1′,8′-dioxo-1′,2′,3′,8′-tetrahydrospiro[cyclobutane-1,4′-pyrido[1,2-a]pyrazin]-9′-olate] | 0.9 nM
COC[C@H]1C[C@]2(CN(C)C(=O)c3c(O)c(=O)c(C(=O)NCc4cccc(Cl)c4F)cn32)C1 [Example 26, N-(3-chloro-2-fluorobenzyl)-9′-hydroxy-cis-3-(methoxymethyl)-2′-methyl-1′,8′-dioxo-1′,2′,3′,8′-tetrahydrospiro[cyclobutane-1,4′-pyrido[1,2-a]pyrazine]-7′-carboxamide] | 1.9 nM

same assay, conditions: read-out: EC50

Compound | EC50
CO[C@H]1C[C@]2(CN(C)C(=O)c3c(O)c(=O)c(C(=O)NCc4cccc(Cl)c4F)cn32)C1 [Example 1, N-(3-chloro-2-fluorobenzyl)-9′-hydroxy-cis-3-methoxy-2′-methyl-1′,8′-dioxo-1′,2′,3′,8′-tetrahydrospiro[cyclobutane-1,4′-pyrido[1,2-a]pyrazine]-7′-carboxamide hydrochloride] | 3.1 nM
